Data published in the supplement of paper PMC10307832.

What was measured:
Assay in all cases: relative viability (nuclei count vs DMSO), 5 days (fraction); higher = more cells survive
Ibrutinib + Luminespib = compound: C=CC(=O)N1CCC[C@@H](n2nc(-c3ccc(Oc4ccccc4)cc3)c3c(N)ncnc32)C1 [Ibrutinib] + CCNC(=O)c1noc(-c2cc(C(C)C)c(O)cc2O)c1-c1ccc(CN2CCOCC2)cc1 [Luminespib] (partner 0.01 µM)
In short: (§1)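 Dosing by pin tool came one day after lung cancer cell lines were seeded in 1536-well plates, using either one drug or a fixed anchor-drug dose plus five library-drug doses (not always all listed) in √10 steps. After 5 days, nuclei were counted on 4× images. Relative viability is treated-well nuclei count divided by vehicle-well nuclei count, and values are medians of duplicate plates.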

PAC-1 + Phenformin = compound: C=CCc1cccc(/C=N/NC(=O)CN2CCN(Cc3ccccc3)CC2)c1O [PAC-1] + N=C(N)NC(=N)NCCc1ccccc1 [Phenformin] (partner 250 µM)
In short: as §1

PAC-1 + Trametinib = compound: C=CCc1cccc(/C=N/NC(=O)CN2CCN(Cc3ccccc3)CC2)c1O [PAC-1] + CC(=O)Nc1cccc(-n2c(=O)n(C3CC3)c(=O)c3c(Nc4ccc(I)cc4F)n(C)c(=O)c(C)c32)c1 [Trametinib] (partner 0.02 µM)
In short: as §1

Ibrutinib + Bortezomib = compound: C=CC(=O)N1CCC[C@@H](n2nc(-c3ccc(Oc4ccccc4)cc3)c3c(N)ncnc32)C1 [Ibrutinib] + CC(C)C[C@H](NC(=O)[C@H](Cc1ccccc1)NC(=O)c1cnccn1)B(O)O [Bortezomib] (partner 0.002 µM)
In short: as §1

| Cell Line | relative viability (Ibrutinib + Luminespib; first compound 0.005 µM) | relative viability (Ibrutinib + Luminespib; first compound 0.01581 µM) | relative viability (Ibrutinib + Luminespib; first compound 0.05 µM) | relative viability (Ibrutinib + Luminespib; first compound 0.1581 µM) | relative viability (Ibrutinib + Luminespib; first compound 0.5 µM) | relative viability (PAC-1 + Phenformin; first compound 0.02 µM) | relative viability (PAC-1 + Phenformin; first compound 0.06325 µM) | relative viability (PAC-1 + Phenformin; first compound 0.2 µM) | relative viability (PAC-1 + Phenformin; first compound 2 µM) | relative viability (PAC-1 + Trametinib; first compound 0.02 µM) | relative viability (PAC-1 + Trametinib; first compound 0.06325 µM) | relative viability (PAC-1 + Trametinib; first compound 0.2 µM) | relative viability (PAC-1 + Trametinib; first compound 2 µM) | relative viability (Ibrutinib + Bortezomib; first compound 0.005 µM) | relative viability (Ibrutinib + Bortezomib; first compound 0.01581 µM) | relative viability (Ibrutinib + Bortezomib; first compound 0.1581 µM) | relative viability (Ibrutinib + Bortezomib; first compound 0.5 µM) | relative viability (Ibrutinib + Bortezomib; first compound 0.05 µM) |
| --- | --- | --- | --- | --- | --- | --- | --- | --- | --- | --- | --- | --- | --- | --- | --- | --- | --- | --- |
| NCI-H1651 | 0.847 | 1.05 | 0.93 | 0.876 | 0.921 | 0.364 | 0.341 | 0.29 | 0.333 | 0.85 | 0.862 | 0.765 | 0.855 | 0.953 | 0.971 | 0.822 | 0.967 |  |
| NCI-H1666 | 0.951 | 0.975 | 0.956 | 1.08 | 0.784 | 0.589 | 0.559 | 0.695 | 0.549 | 0.909 | 0.868 | 0.862 | 0.914 | 0.768 | 0.79 | 0.695 | 0.977 | 0.802 |
| NCI-H1734 | 0.208 | 0.189 | 0.235 | 0.188 | 0.175 | 0.366 | 0.36 | 0.373 | 0.388 | 0.692 | 0.774 | 0.644 | 0.644 | 0.799 | 0.923 | 0.989 | 0.929 | 1.02 |
| NCI-H1755 | 0.318 | 0.617 | 0.55 | 0.313 | 0.531 | 0.615 | 0.614 | 0.595 | 0.606 | 0.815 | 0.767 | 0.783 | 0.733 | 0.914 | 0.983 | 0.95 | 0.969 | 1.02 |
| NCI-H1792 |  | 0.486 | 0.485 | 0.364 | 0.367 | 0.298 | 0.257 | 0.293 | 0.24 | 0.475 | 0.402 | 0.392 | 0.468 |  | 0.984 | 0.85 | 0.93 | 1 |
| NCI-H1915 | 0.824 | 0.85 | 0.819 | 0.857 | 0.69 | 0.364 | 0.358 | 0.345 | 0.365 | 0.304 | 0.303 | 0.303 | 0.33 |  | 0.996 | 1.05 | 0.979 | 1 |
| NCI-H1975 | 0.162 | 0.183 | 0.212 | 0.254 | 0.138 | 0.404 | 0.389 | 0.401 | 0.447 | 0.391 | 0.424 | 0.325 | 0.349 | 0.417 | 0.328 | 0.383 | 0.226 | 0.274 |
| NCI-H1993 | 0.607 | 0.78 | 0.824 | 0.689 | 0.605 | 0.42 | 0.513 | 0.595 | 0.498 | 0.446 | 0.534 | 0.623 | 0.583 | 0.728 | 0.882 |  | 0.681 | 0.789 |
| NCI-H2009 | 1.07 | 1.06 | 1.07 | 1.02 | 1.05 | 0.473 | 0.481 | 0.451 | 0.484 | 0.295 | 0.35 | 0.255 | 0.234 | 1.09 | 1 | 0.864 | 1.05 | 0.988 |
| NCI-H2023 | 0.671 | 0.678 | 0.665 | 0.737 | 0.907 | 0.427 | 0.404 | 0.405 | 0.397 | 0.723 | 0.542 | 0.47 | 0.402 | 0.848 | 0.819 | 1.04 | 0.876 | 0.949 |
| NCI-H2085 | 0.349 | 0.465 | 0.504 | 0.489 | 0.447 | 0.747 | 0.757 | 0.723 | 0.815 | 0.452 | 0.521 | 0.458 | 0.629 |  | 0.954 | 0.963 | 0.963 | 0.983 |
| NCI-H2087 | 0.161 | 0.136 | 0.153 |  | 0.165 | 0.398 | 0.42 | 0.344 | 0.377 | 0.184 | 0.227 | 0.236 | 0.244 | 0.755 | 0.741 | 0.844 | 0.889 | 0.851 |
| NCI-H2126 | 0.651 | 0.756 | 0.855 | 0.962 | 0.75 | 0.515 | 0.524 | 0.517 | 0.513 | 0.548 | 0.535 | 0.563 | 0.55 |  | 1.13 | 1.11 | 1.1 | 1.12 |
| NCI-H2228 | 0.121 |  | 0.116 | 0.131 | 0.144 | 0.303 | 0.303 | 0.306 | 0.318 | 0.394 | 0.889 | 0.433 | 0.648 | 0.996 | 0.989 | 1.37 | 0.92 | 1.13 |
| NCI-H2347 |  | 0.508 | 0.358 | 0.323 | 0.529 | 0.184 | 0.441 | 0.352 | 0.553 | 0.309 | 0.285 | 0.297 | 0.269 |  | 0.982 |  | 0.871 | 1.03 |
| NCI-H2405 | 0.846 | 0.669 | 0.66 | 0.713 | 0.69 | 0.398 | 0.403 | 0.391 | 0.361 | 0.684 | 0.688 | 0.667 | 0.73 | 1.07 | 0.977 | 0.856 | 0.767 | 0.948 |
| NCI-H3122 | 0.0621 | 0.0853 | 0.101 | 0.104 | 0.0947 | 0.378 | 0.377 | 0.365 | 0.333 | 0.213 | 0.253 | 0.205 | 0.189 | 1.07 | 1.05 | 0.955 | 1.02 | 1.08 |
| PC-3 [JPC-3] | 0.65 | 0.64 | 0.74 | 0.806 | 0.505 | 0.484 | 0.468 | 0.461 | 0.489 | 0.613 | 0.692 | 0.711 | 0.726 | 0.837 | 0.805 | 0.826 | 0.635 | 0.831 |
